Assays:
[1] = system: stroke; settings: people with atrial fibrillation; cited from earlier work
[2] = system: recent-onset atrial fibrillation; settings: phase 3 trial; cited from earlier work
[3] = system: atrial tachycardia; test: Termination of induced atrial tachycardia in anesthetized Wistar rats (ECG); format: in vivo
Method: The effect of rapidly hydrolysable cholinergic receptor agonists (RHCA) on supraventricular arrhythmia was tested in anesthetized Wistar rats, as follows.
(§1) Induction of atrial tachycardia, atrial fibrillation and atrial flutter in rats—Wistar rats of either sex weighing 450-550 g were used in this study. Rats were anesthetized and atrial tachycardia, atrial fibrillation, or atrial flutter were induced by cardiac stimulation using a programmable stimulator with an isolated constant-current source. Stimuli of rectangular pulses of 2 milliseconds (ms) duration at three times diastolic threshold were delivered via transesophageal bipolar catheter positioned optimally to stimulate the atria. Double and triple extra stimulation techniques or a minimal coupling interval of 10 ms were performed in an attempt to induce atrial arrhythmias. Atrial burst pacing at intervals of 40 to 80 ms was also performed to induce atrial arrhythmias.
(§2) Electrocardiogram (ECG) recording—The surface six-lead ECG was continuously recorded from subcutaneous 25-gauge electrodes in each limb of the animal. The ECG channels were amplified (0.1-0.5 mV/cm) and filtered between 0.5-250 Hz. The ECG variables were calculated according to standard criteria.
(§3) Rapidly hydrolysable cholinergic receptor agonists (RHCA)—The RHCA were injected either through the tail vein or directly into the right ventricular cavity of rats with induced atrial fibrillation, atrial flutter or atrial tachycardia. The RHCA used in the present study was acetylcholine (ACh). […]

[4] = system: atrial flutter; test: Termination of induced atrial flutter in anesthetized Wistar rats (ECG); format: in vivo; settings: nine rats, 0.02-0.3 mg/kg via tail vein
Source text: as §1, §2, §3

[5] = system: atrial fibrillation; test: Termination of induced atrial fibrillation in anesthetized Wistar rats (ECG); format: in vivo
Source text: as §1, §2
Rapidly hydrolysable cholinergic receptor agonists (RHCA)—The RHCA were injected either through the tail vein or directly into the right ventricular cavity of rats with induced atrial fibrillation, atrial flutter or atrial tachycardia. The RHCA used in the present study was acetylcholine (ACh). ACh was dissolved at a concentration of either 1 mg/ml or 0.1 mg/ml in 0.9% NaCl solution and was injected either to the tail vein at a dosage of 0.2 mg/kg body weight, or to the right ventricle at a dosage of 0.02 mg/kg body weight.
Atrial fibrillation was elicited in rats as described in Example 1, hereinabove.

[6] = system: atrial fibrillation; test: as above; format: in vivo; remark: listed apart in the source
[7] = system: arrhythmia induction; settings: wild type and M1 cholinergic receptor knockout mice; cited from earlier work
[8] = 0.02 mg/kg into right ventricular cavity, FIG. 2b
[9] = 0.2 mg/kg via tail vein, FIG. 2a
[10] = bolus injection into the right ventricular cavity
[11] = bolus injection into the tail vein
[12] = 0.2 mg/kg through the tail vein, FIG. 5
[13] = RHCA into right ventricular cavity, n=10, FIG. 4
[14] = bolus injection 0.04-0.2 mg/kg body weight

CC(=O)CC(c1ccccc1)c1c(O)c2ccccc2oc1=O (stereo not shown) [Coumadin, warfarin]
reduction of the risk of stroke [1]: 60-80%

COc1ccc(CCO[C@@H]2CCCC[C@H]2N2CC[C@@H](O)C2)cc1OC [RSD1235]
conversion of recent-onset atrial fibrillation to sinus rhythm [2]: demonstrated its effectiveness to convert recent-onset atrial fibrillation to sinus rhythm

CC(=O)OCC[N+](C)(C)C [acetylcholine]
time of complete AV node conduction recovery following RHCA administration ([3]; 0.02 mg/kg into right ventricular cavity): about 6 seconds | period of cardiac arrest after termination [3, 8]: 1.25 s | time until AV conduction completely recovered [3, 8]: about 4.5 sec | time to termination of atrial tachycardia ([3]; 0.02 mg/kg into right ventricular cavity, example rat (FIG. 2b)): 0.5 s | duration of high degree AV block ([3]; 0.02 mg/kg into right ventricular cavity, following acetylcholine hydrolysis): 2.5 s | lag to termination of atrial tachycardia ([3]; 0.2 mg/kg body weight via tail vein, representative rat (FIG. 2a)): 2.6 s | time for sinus rhythm to reach its pre-arrhythmic value ([3]; 0.2 mg/kg via tail vein): about 1 minute | P-P interval immediately following RHCA administration [3, 9]: 650 ± 3 ms | R-R interval immediately following RHCA administration [3, 9]: 652 ± 3 ms | time to termination of atrial tachycardia ([3]; 0.02 or 0.2 mg/kg via right ventricular cavity or tail vein, respectively): 0.5 to 15 s | additional time to restore normal rhythm [3, 10]: 1 to 5 s | time to termination of atrial tachycardia [3, 10]: 0.5 to 10.5 s | additional time to restore normal rhythm [3, 11]: 1 to 5 s | time to termination of atrial tachycardia [3, 11]: 2 to 15 s | time until cardiac arrest, escape rhythm, AV block and sinus bradycardia all disappear ([3]; injection into right ventricular cavity): ≤ 15 s | time to conversion to sinus rhythm ([3]; ten rats, 0.02-0.2 mg/kg via tail vein): 2 to 5 s | time to conversion to sinus rhythm [4]: 2 to 5 s | additional time until SA and AV nodes / AV conduction recovered [5, 12]: 1.5 s | time to termination of atrial fibrillation [5, 12]: ≤ 9.8 s | atrial fibrillation cases terminated [5, 13]: 100% | time within which atrial fibrillation cases are terminated [5, 13]: ≤ 8.4 ± 1.9 s | time to termination of atrial fibrillation [5, 14]: 0.5 to 15 s | additional time to restore normal rhythm [5, 10]: 1 to 5 s | time to termination of atrial fibrillation [5, 10]: 0.5 to 10.5 s | additional time to restore normal rhythm [5, 11]: 1 to 5 s | time to termination of atrial fibrillation [5, 11]: 2 to 15 s | time until transient sinus bradycardia (and AV block) disappeared ([6]; 0.04 mg/kg into right ventricular cavity): ≤ 20 s | additional time to restore normal rhythm [6, 14]: 1 to 5 s | effect of intravenous injection on heart rhythm [7]: caused atrioventricular conduction block and induced atrial fibrillation or flutter

From patent publication US7781402B2, “Methods and implantable devices for treating supraventricular arrhythmias” (Closed Loop Therapies Ltd., priority 2004, dated 2010)
